Reference: patent US9284318B2, “Protein kinase inhibitors” (Pharmascience, Inc., priority 2011, dated 2016)

How the values were obtained:
[1] = system: M-NFS-60 M-CSF-dependent myeloid leukemia cells; experiment: Murine M-CSF-dependent M-NFS-60 cell survival assay; format: cell-based; settings: Mus musculus; cell survival at 72 hours, 20 ng/ml M-CSF, Cell Titer-Glo
Method: Cellular Assays: Murine M-CSF-Dependent M-NFS-60 Cell Survival Assay
Murine M-NFS-60 M-CSF-dependent myeloid leukemia cells were purchased from ATCC (CRL-1838). Cells were routinely cultured at 37° C., 5% CO2 in complete medium (RPMI supplemented with 10% FBS, 1% penicillin/streptomycin, 50 uM beta mercaptoethanol) containing 30 ng/ml recombinant murine M-CSF (Peprotech 315-02). For survival assays, cells were transferred to depleted medium (complete medium depleted of M-CSF) for 24 hours prior to initiation of each experiment. M-CSF-starved cells were harvested and re-suspended in complete medium containing 20 ng/ml M-CSF. Cells were seeded at 25,000 cells/well in 96-well plates and incubated for 1 hour at 37° C., 5% CO2. Cells were treated with 1 uM or 10 uM compound curves in triplicate and cell survival was measured 72 hours later by Cell Titer-Glo Luminescent Assay (Promega). Luminescence was read using a Tecan Infinite F200 microplate reader. EC50 values (50% survival in the presence of compound as compared to vehicle treated controls) were calculated from non-linear fit dose response compound curves using GraphPad Prism Software.

MV4-11 cells = experiment: Human MV4-11 biphenotypic B myelomonocytic leukemia cell survival assay; format: cell-based; settings: cell survival at 72h, Cell Titer-Glo
Method: Human MV4-11 Biphenotypic B Myelomonocytic Leukemia Cell Survival Assay
Biphenotypic B myelomonocytic leukemia MV4-11 cells (ATCC CRL-9591) were cultured in suspension at 37° C., 5% CO2 in complete medium (RPMI supplemented with 10% FBS, 1% penicillin/streptomycin). One day prior to treatment, cells per seeded in 96-well plates at 8000 cells/well in complete medium. The following day, triplicate wells were treated with compound curves of 100, 1000 or 10,000 nM starting concentration according to compound potency. Cell survival was measured 72h later by Cell Titer-Glo Luminescent Assay (Promega). Luminescence was read using a Tecan Infinite F200 microplate reader. EC50 values (50% survival in the presence of compound as compared to vehicle treated controls) were calculated from non-linear fit dose response compound curves using CambridgeSoft BioAssay software (Perkin Elmer).

[2] = target: T1, recombinant human colony stimulating factor 1 receptor (FMS) (Homo sapiens, UniProt P07333); experiment: Biochemical cFMS (CSF1R) fluorescence polarization kinase assay; settings: 10 μM ATP, 100 μM substrate, 60 minutes
T1 construct: containing the catalytic domain (amino acids 538-910); His tag; purchased Invitrogen; host or cells: insect cells
T1 sequence (P07333 538-910): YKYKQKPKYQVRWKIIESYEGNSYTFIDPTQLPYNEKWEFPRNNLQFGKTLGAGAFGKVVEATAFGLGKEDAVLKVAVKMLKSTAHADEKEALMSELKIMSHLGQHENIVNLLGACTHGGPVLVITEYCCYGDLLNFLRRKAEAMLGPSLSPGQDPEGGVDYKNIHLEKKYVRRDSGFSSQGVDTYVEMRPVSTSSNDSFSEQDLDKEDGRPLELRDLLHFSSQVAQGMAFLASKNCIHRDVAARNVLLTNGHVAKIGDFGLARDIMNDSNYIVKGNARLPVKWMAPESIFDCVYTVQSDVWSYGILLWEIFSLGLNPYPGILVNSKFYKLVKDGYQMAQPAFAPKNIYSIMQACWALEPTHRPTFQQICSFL
Method: Biochemical cFMS (CSF1R) Assay:
Fluorescence polarization-based kinase biochemical assays were performed in 384 well-plate format using histidine tagged recombinant human colony stimulating factor 1 receptor (FMS) supplied from Invitrogen™ (containing the catalytic domain (amino acids 538-910), expressed in insect cells and activated in vitro via auto phosphorylation) and a modified protocol of the KinEASE™ FP Fluorescein Green Assay supplied from Millipore™.
Kinase reactions were performed in 384 well plate format at room temperature for 60 minutes in presence of 100 μM substrate, 10 μM ATP and variable test article concentrations. The reaction was stopped with EDTA/KinEASE™ detection reagents and the polarization measured on a Tecan 500 instrument. From the dose-response curve obtained, the IC50 was estimated using Graph pad Prisms® using a non linear fit curve.

Row | IC50 [2] [nM] | Structure (SMILES) | EC50 [1] [nM] | EC50 (MV4-11 cells) [nM]
1 | 100 to 1000 | Nc1ncnc2c3c(n(-c4ccc(NC(=O)Nc5ccccc5F)cc4)c12)CCC3 [Compound 39] | < 100 | 100 to 1000
2 | 100 to 1000 | COc1ccc(C(F)(F)F)cc1NC(=O)Nc1ccc(-n2c3c(c4ncnc(N)c42)CCC3)cc1 [Compound 58] | 100 to 1000 | < 100
3 | – | Nc1ccc(-n2c3c(c4ncnc(N)c42)CCC3)cc1 [Compound 2] | – | < 100
4 | – | COc1ccc(-n2c3c(c4ncnc(N)c42)CCC3)cc1 [Compound 7] | – | > 1000
5 | < 100 | Nc1ncnc2c3c(n(-c4ccc(NC(=O)Nc5ccc6c(c5)OCO6)cc4)c12)CCC3 [Compound 28] | < 100 | < 100
6 | – | Nc1ncnc2c3c(n(-c4ccc(NC(=O)Nc5ccc(Cl)cc5)cc4)c12)CCC3 [Compound 22] | < 100 | 100 to 1000
7 | 100 to 1000 | Nc1ncnc2c3c(n(-c4ccc(NC(=O)Nc5cccc(C(F)(F)F)c5)cc4)c12)CCC3 [Compound 17] | < 100 | < 100
8 | – | Nc1ncnc2c3c(n(-c4ccc(NC(=O)NCc5ccc(F)cc5)cc4)c12)CCC3 [Compound 52] | 100 to 1000 | < 100
9 | – | Nc1ncnc2c3c(n(-c4ccc(O)cc4)c12)CCC3 [Compound 26] | – | > 1000
10 | – | CS(=O)(=O)Nc1ccc(-n2c3c(c4ncnc(N)c42)CCC3)cc1 [Compound 6] | – | > 1000
11 | 100 to 1000 | CS(=O)(=O)c1ccc(NC(=O)Nc2ccc(-n3c4c(c5ncnc(N)c53)CCC4)cc2)cc1 [Compound 64] | > 1000 | 100 to 1000
12 | > 1000 | Nc1ncnc2c3c(n(-c4ccc(Nc5ccccc5)cc4)c12)CCC3 [Compound 12] | > 1000 | > 1000
13 | – | Nc1ncnc2c3c(n(CCCc4ccccc4)c12)CCC3 [Compound 40] | – | 100 to 1000
14 | – | Nc1ncnc2c3c(n(-c4ccc(NC(=O)NCCc5ccc(F)cc5)cc4)c12)CCC3 [Compound 42] | 100 to 1000 | < 100
15 | > 1000 | CCNC(=O)Nc1ccc(-n2c3c(c4ncnc(N)c42)CCC3)cc1 [Compound 9] | > 1000 | 100 to 1000
16 | < 100 | COc1ccc(NC(=O)Nc2ccc(-n3c4c(c5ncnc(N)c53)CCC4)cc2)cc1F [Compound 56] | < 100 | < 100
17 | > 1000 | Nc1ncnc2c3c(n(-c4ccc(NC(=O)c5ccccc5)cc4)c12)CCC3 [Compound 10] | > 1000 | > 1000
18 | – | Nc1ncnc2c3c(n(Cc4ccccc4)c12)CCC3 [Compound 15] | – | > 1000
19 | 100 to 1000 | Nc1ncnc2c3c(n(-c4ccc(NC(=O)Nc5ccccc5Cl)cc4)c12)CCC3 [Compound 36] | 100 to 1000 | > 1000
20 | 100 to 1000 | Nc1ncnc2c3c(n(-c4ccc(NC(=O)Nc5ccc(C(F)(F)F)cc5)cc4)c12)CCC3 [Compound 21] | < 100 | 100 to 1000
21 | – | CC(=O)Nc1ccc(-n2c3c(c4ncnc(N)c42)CCC3)cc1 [Compound 37] | – | > 1000
22 | < 100 | Nc1ncnc2c3c(n(-c4ccc(NC(=O)Nc5ccccc5)cc4)c12)CCC3 [Compound 4] | < 100 | < 100
23 | – | Nc1ccc(-n2c3c(c4ncnc(N)c42)COC3)cc1 [Compound 32] | – | 100 to 1000
24 | – | Nc1ncnc2c3c(n(CCCCc4ccccc4)c12)CCC3 [Compound 51] | – | > 1000
25 | > 1000 | N#Cc1ccc(NC(=O)Nc2ccc(-n3c4c(c5ncnc(N)c53)CCC4)cc2)cc1 [Compound 65] | 100 to 1000 | < 100

Row | IC50 [2] [nM] | Structure (SMILES) | EC50 [1] [nM] | EC50 (MV4-11 cells) [nM]
26 | 100 to 1000 | Nc1ncnc2c3c(n(-c4ccc(NC(=O)NCc5ccccc5)cc4)c12)CCC3 [Compound 30] | 100 to 1000 | < 100
27 | 100 to 1000 | CS(=O)(=O)c1cccc(NC(=O)Nc2ccc(-n3c4c(c5ncnc(N)c53)CCC4)cc2)c1 [Compound 72] | 100 to 1000 | < 100
28 | 100 to 1000 | Nc1ncnc2c3c(n(-c4ccc(NC(=O)NCCc5ccccc5)cc4)c12)CCC3 [Compound 46] | 100 to 1000 | < 100
29 | 100 to 1000 | C[C@@H](NC(=O)Nc1ccc(-n2c3c(c4ncnc(N)c42)CCC3)cc1)c1ccc(F)cc1 [Compound 73] | 100 to 1000 | < 100
30 | – | Nc1ncnc2c3c(n(CCc4ccccc4)c12)CCC3 [Compound 29] | – | > 1000
31 | < 100 | COc1cc(NC(=O)Nc2ccc(-n3c4c(c5ncnc(N)c53)CCC4)cc2)ccc1F [Compound 35] | 100 to 1000 | < 100
32 | 100 to 1000 | Nc1ncnc2c3c(n(-c4ccc(NC(=O)Nc5cc(C(F)(F)F)ccc5F)cc4)c12)COC3 [Compound 67] | 100 to 1000 | < 100
33 | 100 to 1000 | C[C@@H](NC(=O)Nc1ccc(-n2c3c(c4ncnc(N)c42)CCC3)cc1)c1ccccc1 [Compound 45] | 100 to 1000 | < 100
34 | > 1000 | Nc1ncnc2c3c(n(-c4ccc(NS(=O)(=O)c5ccccc5)cc4)c12)CCC3 [Compound 3] | > 1000 | > 1000
35 | > 1000 | N#Cc1ccccc1NC(=O)Nc1ccc(-n2c3c(c4ncnc(N)c42)CCC3)cc1 [Compound 71] | > 1000 | 100 to 1000
36 | < 100 | Nc1ncnc2c3c(n(-c4ccc(NC(=O)Nc5cccc(C(F)(F)F)c5)cc4)c12)COC3 [Compound 48] | 100 to 1000 | < 100
37 | 100 to 1000 | Nc1ncnc2c3c(n(-c4ccc(NC(=O)Nc5cccc(Cl)c5)cc4)c12)CCC3 [Compound 20] | < 100 | 100 to 1000
38 | < 100 | CC(C)(C)c1cc(NC(=O)Nc2ccc(-n3c4c(c5ncnc(N)c53)CCC4)cc2)no1 [Compound 74] | < 100 | –
39 | 100 to 1000 | Nc1ncnc2c3c(n(-c4ccc(NC(=O)Nc5cc(C(F)(F)F)ccc5F)c(F)c4)c12)CCC3 [Compound 62] | 100 to 1000 | < 100
40 | 100 to 1000 | Nc1ncnc2c3c(n(-c4ccc(NC(=O)Nc5cccc(OC(F)F)c5)cc4)c12)CCC3 [Compound 57] | < 100 | < 100
41 | 100 to 1000 | COc1ccc(NC(=O)Nc2ccc(-n3c4c(c5ncnc(N)c53)CCC4)cc2)cc1C(F)(F)F [Compound 55] | 100 to 1000 | < 100
42 | – | Nc1ncnc2c3c(n(-c4ccc5c(c4)OCO5)c12)CCC3 [Compound 5] | – | > 1000
43 | – | Nc1ncnc2c3c(n(-c4ccccc4)c12)CCC3 [Compound 49] | – | 100 to 1000
44 | – | Nc1ncnc2c3c(n(-c4ccc(NC(=O)OCc5ccccc5)cc4)c12)COC3 [Compound 31] | – | 100 to 1000
45 | – | COc1cc(NC(=O)Nc2ccc(-n3c4c(c5ncnc(N)c53)CCC4)cc2)cc(C(F)(F)F)c1 [Compound 70] | – | < 100
46 | – | Nc1ccc(-n2c3c(c4ncnc(N)c42)CCCC3)cc1 [Compound 18] | – | 100 to 1000
47 | – | COc1ccc(-n2c3c(c4ncnc(N)c42)CCC3)cc1OC [Compound 34] | – | > 1000
48 | – | C[C@H](NC(=O)Nc1ccc(-n2c3c(c4ncnc(N)c42)CCC3)cc1)c1ccccc1 [Compound 38] | 100 to 1000 | > 1000
49 | – | COc1ccc(NC(=O)Nc2ccc(-n3c4c(c5ncnc(N)c53)CCC4)cc2)cc1 [Compound 13] | < 100 | < 100
